Data set [1] concerns classical complement pathway. Nature of the data set: In vitro haemolysis assay (inhibition of classical complement pathway). Format: cell-based, human. The conditions noted are these: human serum, sensitized sheep red blood cells. A digest of the protocol: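 Serially diluted compound (9 points) was preincubated 15 min at room temperature with diluted human serum, titrated per batch to give 70-90% maximal haemolysis, in Tris/casein buffer pH 7.4 with Mg2+/Ca2+. Antibody-sensitized sheep erythrocytes were then added for 30 min at 37° C, and the reaction was stopped with EDTA. Haemolysis was read at A405, with IC50 from 4PL fit.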

Data set [2] in a line: Solubility test at 10 mg/mL (visual inspection and light scattering). In kind it is physicochemical. The note with it: for Solubility, Condition 1 Acetate pH 4: 10 mg/mL compound in 100 mM acetate pH 4; for Solubility, Condition 2 Acetate pH 5: 10 mg/mL compound in 100 mM acetate pH 5; for Solubility, Condition 3 Phosphate pH 6: 10 mg/mL compound in 100 mM phosphate pH 6; for Solubility, Condition 4 Phosphate pH 7: 10 mg/mL compound in 100 mM phosphate pH 7; for Solubility, Condition 5 Phosphate pH 7.5: 10 mg/mL compound in 100 mM phosphate pH 7.5.

Where [3] appears, read: Table 3, read-out: IC50[nM], in vitro analysis of inhibition of hemolysis.

Where two headings read alike, the source gives them in different places. Starred links: 1 amine or outer side, 2 acyl side, 3 side chain; linkers in the order of their positions; H or OH if unused. Positions of bridges follow the written chain, without caps; N, C: chain ends. Non-standard residues stand in square brackets, D forms with d. Residues, ends and D or L forms follow the SMILES beside them. Groups on a side chain read outwards from the residue. *: point of attachment. Trp(1-Me) = Cn1cc(C[C@H](N)C(=O)O)c2ccccc21; C18 diacid = O=C(O)CCCCCCCCCCCCCCCCC(=O)*; C16 diacid = O=C(O)CCCCCCCCCCCCCCC(=O)*; γGlu = O=C(O)[C@H](CCC(=O)[*:2])N[*:1]; 2Nal = N[C@@H](Cc1ccc2ccccc2c1)C(=O)O; AEEA = NCCOCCOCC(=O)O; Sar = CNCC(=O)O

Experimental findings from US20220306695A1, “COMPSTATIN ANALOGUES AND THEIR MEDICAL USES” (priority 2019, published 2022) are described below.

As usually defined, the IC50 is the concentration that gives 50% inhibition. For the molecule `CC[C@H](C)[C@H](NC(C)=O)C(=O)N[C@H]1CSSC[C@@H](C(=O)N[C@H](C(N)=O)[C@@H](C)O)NC(=O)[C@H](CCCNC(=N)N)NC(=O)[C@H](Cc2c[nH]cn2)NC(=O)[C@H](C)NC(=O)CNC(=O)[C@H](Cc2c[nH]c3ccccc23)NC(=O)[C@H](CC(=O)O)NC(=O)[C@H](CCC(N)=O)NC(=O)[C@H](Cc2c[nH]c3ccccc23)NC(=O)[C@H]([C@@H](C)CC)NC1=O` [Compound 1] (Ac-ICIWQDWGAHRCT-NH2; disulfide 2-12), in data set [1] (Table 2, read-out: CP hemolysis IC50), the IC50 came out at 150 nM. In data set [1] (setting [3]), the IC50 was < 250 nM. In data set [2], the “Solubility, Condition 1 Acetate pH 4” value is “+ (denotes solubility at the given condition, as determined by UV absorbance being less than 0.1 AU at 340 nm and the sample being clear when manually inspected.)”; the “Solubility, Condition 2 Acetate pH 5” value is “− (denotes lack of solubility at the given condition, as UV absorbance at 340 nm exceeds 0.1 AU and/or it is visibly turbid or contains particles.)”; the “Solubility, Condition 3 Phosphate pH 6” value is on record as “− (denotes lack of solubility at the given condition, as UV absorbance at 340 nm exceeds 0.1 AU and/or it is visibly turbid or contains particles.)”; the “Solubility, Condition 4 Phosphate pH 7” value is recorded as “− (denotes lack of solubility at the given condition, as UV absorbance at 340 nm exceeds 0.1 AU and/or it is visibly turbid or contains particles.)”. Besides, the “Solubility, Condition 5 Phosphate pH 7.5” value in data set [2] is given as “− (denotes lack of solubility at the given condition, as UV absorbance at 340 nm exceeds 0.1 AU and/or it is visibly turbid or contains particles.)”.

For the molecule `CC[C@H](C)[C@H](NC(=O)[C@H](C)NC(=O)[C@H](CO)NC(=O)CNC(=O)[C@H](CCC(=O)O)NC(C)=O)C(=O)N[C@H]1CSSC[C@@H](C(=O)N(C)CC(=O)N[C@@H](CCC(=O)O)C(N)=O)NC(=O)[C@H](CCCNC(=N)N)NC(=O)[C@H](Cc2c[nH]cn2)NC(=O)[C@H](CCC(=O)O)NC(=O)CNC(=O)[C@H](Cc2c[nH]c3ccccc23)NC(=O)[C@H](CC(=O)O)NC(=O)[C@H](CCC(N)=O)NC(=O)[C@H](Cc2cn(C)c3ccccc23)NC(=O)[C@H]([C@@H](C)CC)NC1=O` [Compound 49] (Ac-EGSAICI[Trp(1-Me)]QDWGEHRC[Sar]E-NH2; disulfide 6-16), the IC50 in data set [1] (setting [3]) is < 100 nM. Moreover, in data set [2], the “Solubility, Condition 1 Acetate pH 4” value is recorded as “− (denotes lack of solubility at the given condition, as UV absorbance at 340 nm exceeds 0.1 AU and/or it is visibly turbid or contains particles.)”; the “Solubility, Condition 2 Acetate pH 5” value is “− (denotes lack of solubility at the given condition, as UV absorbance at 340 nm exceeds 0.1 AU and/or it is visibly turbid or contains particles.)”; the “Solubility, Condition 3 Phosphate pH 6” value is “+ (denotes solubility at the given condition, as determined by UV absorbance being less than 0.1 AU at 340 nm and the sample being clear when manually inspected.)”; the “Solubility, Condition 4 Phosphate pH 7” value is “+ (denotes solubility at the given condition, as determined by UV absorbance being less than 0.1 AU at 340 nm and the sample being clear when manually inspected.)”. In addition, the “Solubility, Condition 5 Phosphate pH 7.5” value in data set [2] is “+ (denotes solubility at the given condition, as determined by UV absorbance being less than 0.1 AU at 340 nm and the sample being clear when manually inspected.)”.

On to `CC[C@H](C)[C@@H]1NC(=O)[C@@H](NC(=O)[C@@H](NC(=O)[C@H](CCC(=O)O)NC(=O)CNC(=O)[C@H](CCC(=O)O)NC(C)=O)[C@@H](C)CC)CSSC[C@@H](C(=O)N[C@H](C(N)=O)[C@@H](C)O)NC(=O)[C@H](CCCNC(=N)N)NC(=O)[C@H](Cc2c[nH]cn2)NC(=O)[C@H](CCC(=O)O)NC(=O)CNC(=O)[C@H](Cc2c[nH]c3ccccc23)NC(=O)[C@H](CC(=O)O)NC(=O)[C@H](CCC(N)=O)NC(=O)[C@H](Cc2c[nH]c3ccccc23)NC1=O` [Compound 30] (Ac-EGEICIWQDWGEHRCT-NH2; disulfide 5-15), for which the IC50 in data set [1] (setting [3]) is < 100 nM. Besides, in data set [2], the “Solubility, Condition 1 Acetate pH 4” value is reported as “− (denotes lack of solubility at the given condition, as UV absorbance at 340 nm exceeds 0.1 AU and/or it is visibly turbid or contains particles.)”; the “Solubility, Condition 2 Acetate pH 5” value is reported as “− (denotes lack of solubility at the given condition, as UV absorbance at 340 nm exceeds 0.1 AU and/or it is visibly turbid or contains particles.)”; the “Solubility, Condition 3 Phosphate pH 6” value is “− (denotes lack of solubility at the given condition, as UV absorbance at 340 nm exceeds 0.1 AU and/or it is visibly turbid or contains particles.)”; the “Solubility, Condition 4 Phosphate pH 7” value was “+ (denotes solubility at the given condition, as determined by UV absorbance being less than 0.1 AU at 340 nm and the sample being clear when manually inspected.)”. Also, in data set [2], the “Solubility, Condition 5 Phosphate pH 7.5” value was “+ (denotes solubility at the given condition, as determined by UV absorbance being less than 0.1 AU at 340 nm and the sample being clear when manually inspected.)”.

For the molecule `CC[C@H](C)[C@@H]1NC(=O)[C@@H](NC(=O)[C@H](Cc2ccccc2)NC(C)=O)CSSC[C@@H](C(=O)N[C@H](C(=O)NCC(=O)N[C@@H](C)C(=O)N[C@@H](CCC(=O)O)C(=O)N[C@@H](CO)C(=O)N[C@@H](CCCCNC(=O)COCCOCCNC(=O)COCCOCCNC(=O)CC[C@H](NC(=O)CCCCCCCCCCCCCCC(=O)O)C(=O)O)C(N)=O)[C@@H](C)O)NC(=O)[C@H](CCCNC(=N)N)NC(=O)[C@H](Cc2c[nH]cn2)NC(=O)[C@H](CCC(=O)O)NC(=O)CNC(=O)[C@H](Cc2c[nH]c3ccccc23)NC(=O)[C@H](CC(=O)O)NC(=O)[C@H](CCC(N)=O)NC(=O)[C@H](Cc2cn(C)c3ccccc23)NC1=O` [Compound 102] (Ac-FCI[Trp(1-Me)]QDWGEHRCTGAESK([AEEA-AEEA-γGlu-C16 diacid])-NH2; disulfide 2-12), the 50% inhibitory concentration (IC50) in data set [1] (setting [3]) was < 100 nM. Further, in data set [2], the “Solubility, Condition 1 Acetate pH 4” value is “− (denotes lack of solubility at the given condition, as UV absorbance at 340 nm exceeds 0.1 AU and/or it is visibly turbid or contains particles.)”; the “Solubility, Condition 2 Acetate pH 5” value was “+ (denotes solubility at the given condition, as determined by UV absorbance being less than 0.1 AU at 340 nm and the sample being clear when manually inspected.)”; the “Solubility, Condition 3 Phosphate pH 6” value was “+ (denotes solubility at the given condition, as determined by UV absorbance being less than 0.1 AU at 340 nm and the sample being clear when manually inspected.)”; the “Solubility, Condition 4 Phosphate pH 7” value is “+ (denotes solubility at the given condition, as determined by UV absorbance being less than 0.1 AU at 340 nm and the sample being clear when manually inspected.)”. In data set [2], the “Solubility, Condition 5 Phosphate pH 7.5” value is “+ (denotes solubility at the given condition, as determined by UV absorbance being less than 0.1 AU at 340 nm and the sample being clear when manually inspected.)”.

Regarding `CC[C@H](C)[C@@H]1NC(=O)[C@@H](NC(=O)[C@H](Cc2ccc(O)cc2)NC(=O)[C@H](CCC(=O)O)NC(=O)[C@H](CO)NC(C)=O)CSSC[C@@H](C(=O)N(C)CC(=O)N[C@@H](CCC(=O)O)C(=O)NCC(=O)N[C@@H](CCC(=O)O)C(=O)N[C@@H](CCCCNC(=O)CC[C@H](NC(=O)CNC(=O)CC[C@H](NC(=O)CCCCCCCCCCCCCCCCC(=O)O)C(=O)O)C(=O)O)C(N)=O)NC(=O)[C@H](CCCNC(=N)N)NC(=O)[C@H](Cc2c[nH]cn2)NC(=O)[C@H](CCC(=O)O)NC(=O)CNC(=O)[C@H](Cc2c[nH]c3ccccc23)NC(=O)[C@H](CC(=O)O)NC(=O)[C@H](CCC(N)=O)NC(=O)[C@H](Cc2cn(C)c3ccccc23)NC1=O` [Compound 114] (Ac-SEYCI[Trp(1-Me)]QDWGEHRC[Sar]EGEK([γGlu-Gly-γGlu-C18 diacid])-NH2; disulfide 4-14), the IC50 in data set [1] (setting [3]) was < 500 nM. Besides, in data set [2], the “Solubility, Condition 1 Acetate pH 4” value was “+ (denotes solubility at the given condition, as determined by UV absorbance being less than 0.1 AU at 340 nm and the sample being clear when manually inspected.)”; the “Solubility, Condition 2 Acetate pH 5” value was “+ (denotes solubility at the given condition, as determined by UV absorbance being less than 0.1 AU at 340 nm and the sample being clear when manually inspected.)”; the “Solubility, Condition 3 Phosphate pH 6” value is “+ (denotes solubility at the given condition, as determined by UV absorbance being less than 0.1 AU at 340 nm and the sample being clear when manually inspected.)”; the “Solubility, Condition 4 Phosphate pH 7” value is “+ (denotes solubility at the given condition, as determined by UV absorbance being less than 0.1 AU at 340 nm and the sample being clear when manually inspected.)”. In data set [2], the “Solubility, Condition 5 Phosphate pH 7.5” value is “+ (denotes solubility at the given condition, as determined by UV absorbance being less than 0.1 AU at 340 nm and the sample being clear when manually inspected.)”.

On to `CC[C@H](C)[C@H](NC(=O)[C@H](C)NC(=O)[C@H](CO)NC(=O)CNC(=O)[C@H](CCC(=O)O)NC(C)=O)C(=O)N[C@H]1CSSC[C@@H](C(=O)N(C)CC(=O)N[C@@H](CCC(=O)O)C(N)=O)NC(=O)[C@H](CCCNC(=N)N)NC(=O)[C@H](Cc2c[nH]cn2)NC(=O)[C@H](CCC(=O)O)NC(=O)CNC(=O)[C@H](Cc2c[nH]c3ccccc23)NC(=O)[C@H](CC(=O)O)NC(=O)[C@H](CCC(N)=O)NC(=O)[C@H](Cc2ccc3ccccc3c2)NC(=O)[C@H]([C@@H](C)CC)NC1=O` [Compound 50] (Ac-EGSAICI[2Nal]QDWGEHRC[Sar]E-NH2; disulfide 6-16), for which the IC50 in data set [1] (setting [3]) is < 100 nM. Further, in data set [2], the “Solubility, Condition 1 Acetate pH 4” value was “− (denotes lack of solubility at the given condition, as UV absorbance at 340 nm exceeds 0.1 AU and/or it is visibly turbid or contains particles.)”; the “Solubility, Condition 2 Acetate pH 5” value is “− (denotes lack of solubility at the given condition, as UV absorbance at 340 nm exceeds 0.1 AU and/or it is visibly turbid or contains particles.)”; the “Solubility, Condition 3 Phosphate pH 6” value was “+ (denotes solubility at the given condition, as determined by UV absorbance being less than 0.1 AU at 340 nm and the sample being clear when manually inspected.)”; the “Solubility, Condition 4 Phosphate pH 7” value is “+ (denotes solubility at the given condition, as determined by UV absorbance being less than 0.1 AU at 340 nm and the sample being clear when manually inspected.)”. Moreover, the “Solubility, Condition 5 Phosphate pH 7.5” value in data set [2] is “+ (denotes solubility at the given condition, as determined by UV absorbance being less than 0.1 AU at 340 nm and the sample being clear when manually inspected.)”.
